Experimental data: patent US20260263638A1, “COMPOSITIONS AND METHODS TO IMPROVE RNA PROPERTIES USING BASE, PHOSPHODIESTER LINKAGE, SUGAR BACKBONE, AND CAP MODIFICATIONS” (The Broad Institute, Inc., priority 2023, published 2026)
Strand notation (5' to 3'): a small letter for the sugar, then the base; units joined by * are phosphorothioate-linked, units joined directly phosphodiester-linked; [ ] holds rarer units or linkages, { } end groups; capitals alone tell only the bases. {m7G-cap} = 7-methylguanosine cap added chemically (m7GDP-imidazolide) to the 5'-phosphate; e = 2'-O-(2-methoxyethyl) (MOE); [I] = hypoxanthine (inosine); d = 2'-deoxy (DNA); m = 2'-O-methyl; r = 2'-OH (RNA); {P} = phosphate; f = 2'-fluoro

What was measured:
eIF4E = target: T1, eIF4E (Homo sapiens, UniProt P06730); assay: eIF4E electrophoretic mobility shift assay (EMSA); type: binding; conditions: AF647-labeled capped oligos, read-out: eIF4E dissociation constant (Kd)
T1 construct: His; purchased Cayman Chemical Inc 25150
T1 sequence (P06730 whole entry): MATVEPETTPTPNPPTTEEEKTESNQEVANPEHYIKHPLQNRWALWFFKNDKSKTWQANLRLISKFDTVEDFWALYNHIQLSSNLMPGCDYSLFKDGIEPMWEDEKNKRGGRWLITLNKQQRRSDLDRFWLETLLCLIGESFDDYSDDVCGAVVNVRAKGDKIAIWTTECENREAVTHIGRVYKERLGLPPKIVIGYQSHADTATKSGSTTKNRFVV
Experimental: eIF4E affinity to fluorophore-labeled capped RNA oligonucleotides was quantified through electrophoretic mobility shift assay (EMSA) (FIGS. 14D and 9A-9E).
Capped oligonucleotides were labeled on the 3′ end using AF647 labeled cytidine-5′-phosphate-3′-(6-aminohexyl) phosphate [Jena Bioscience, NU-1706-AF647] and T4 RNA ligase ligated AF647-labeled cytidine onto the capped oligos using manufacturer's protocols. Oligos were then incubated in the binding buffer (1 mM DTT, 50 mM KCl, 10 mM Tris-HCl (pH 7.6), Novex Hi-Density TBE Sample Buffer [Invitrogen, LC6678]) with varying eIF4E-His [Cayman Chemical Inc, 25150] concentrations prepared by sequential dilutions from the stock solution. The oligos and […] were incubated at 4° C. for 30 mins and characterized by EMSA with Novex TBE Gels, 4-20% [Invitrogen, EC6225BOX] at 4° C. AF647 labeled oligos were imaged with BioRad ChemiDoc MP Imaging System [12003154] and band intensities were quantified using ImageJ. For Kd calculation, the proportions of bound were plotted against eIF4E concentration using GraphPad Prism (Specific binding with Hill slope).

HeLa cells = assay: Time-course dual luciferase assay of modified Firefly luciferase mRNA (Renilla control); type: cell-based; conditions: for Protein expression (Firefly luciferase luminescence normalized to Renilla, then to m7G-rG), fold increase / Effect of cap/5′ UTR modification on protein production / translation: HeLa cells; for Protein expression (Firefly luciferase luminescence normalized to Renilla, then to m7G-rG), fold increase: 8-, 24-, 48-hours post-transfection, benchmark m7G-rG; for Effect of cap/5′ UTR modification on protein production / translation: Fluc reporter, result in words
Experimental: The modularity of this workflow enabled divergent construction and evaluation of mRNAs featuring four different types of cap and 5′ UTR modifications (FIG. 8A): (1) base identities within the 5′ UTR, including as locations beyond the third base (+3 position), (2) phosphodiester linkages within the 5′ UTR, (3) sugar backbone modifications within the 5′ UTR, and (4) cap modifications. The effects of all of these different types of modifications on protein translation were assayed using Firefly luciferase reporter at 8-, 24-, and 48-hours post-transfection.
HeLa cells [ATCC, CCL-2] were maintained in DMEM culture media [ThermoFisher Scientific, 119951] containing 10% FBS and 1% penicillin-streptomycin [ThermoFisher Scientific, 15070063] in a 37° C. incubator with 5% CO2 and passaged at a ratio of 1:10 every 3 days. On the day before mRNA transfection, HeLa cells were seeded at 90% confluence in individual wells on 24-well plates. The following day, 50 ng of Renilla luciferase (internal control) mRNA and 50 ng of modified Firefly luciferase mRNA were transfected using Lipofectamine MessengerMAX Transfection Reagent [ThermoFisher Scientific, LMRNA003] per manufacturer's protocols. Additional controls that contain only Renilla luciferase mRNA or lipofection reagent only were included. Three individual transfections were conducted for each condition. 6 hours after transfection, the transfection media was removed, and cells were trypsinized and reseeded to three white clear-bottom 96-well plates [Corning, 3610] in phenol-red-free media. At 8-, 24-, and 48-hours post-transfection, cell culture media was removed and cells were rinsed with DPBS. Cells were lysed and luciferase activity was measured using the Promega Dual Glo Luciferase Assay System [Promega, E2920]. Firefly luminescence/Renilla luminescence for each well was used as mRNA activity readout. In cases where Nluc and Fluc were used, the protocol was conducted similarly using the Nano-Glo Dual-Luciferase Reporter Assay System [Promega, N1610].

[1] = target: T2, human decapping enzyme 2 (hDcp2) (Homo sapiens, UniProt Q8IU60); assay: hDcp2 decapping assay; type: biochemical; conditions: 23-nt capped oligos; result in words
T2 construct: purchased Enzymax LLC 86
Experimental: Next, the influence of modifications on decapping activity was examined. To this end, 23-nucleotide (23-nt) oligonucleotides with various modification patterns were subjected to decapping reactions and analyzed at different time intervals (FIGS. 14E and 9I).
500 ng of capped oligos were incubated in 75 μL decapping reaction buffer (10 mM Tris-HCl (pH 7.5), 100 mM NaCl, 2 mM MgCl2, 1 mM DTT, 2 mM MnCl2, 1:25 SUPERaseIn (v/v)) with 300 ng of hDcp2 [Enzymax LLC, 86] at 37° C. At indicated time points, 5 μL of reaction mixture was aliquoted out into 10 μL of denaturing gel-loading buffer [NEB, B0363S, with urea added to a final concentration of 5 M] and cooled to −20° C. until all time points were collected. The fractions were analyzed by PAGE using Novex 15% TBE-Urea gel [Invitrogen, EC6885BOX] by running at 100 V for 2 hours and stained by 1×SYBR Gold [ThermoFisher Scientific, S11494], and visualized using BioRad ChemiDoc MP Imaging System [12003154]. Band intensities were quantified using ImageJ.

| Substance | Effect of cap/5′ UTR modification on protein production / translation (HeLa cells) | further results |
| --- | --- | --- |
| construct 24: LNAm7G cap; /5Phos/mAmGmAmGmAmArUrArArArArA (SEQ ID NO: 25) ({P}-mAmGmAmGmAmArUrArArArArA; LNA-modified m7G cap on the 5'-phosphate) |  | Kd (eIF4E): 1.57 ± 0.116 µM; Protein expression (Firefly luciferase luminescence normalized to Renilla, then to m7G-rG), fold increase (HeLa cells): 7.5 fold |
| construct 12: m7G cap; /5Phos//i2MOErA/rGrArGrArArUrArArArArA (SEQ ID NO: 13) ({m7G-cap}-eArGrArGrArArUrArArArArA) |  | Protein expression (Firefly luciferase luminescence normalized to Renilla, then to m7G-rG), fold increase (HeLa cells): 4.8 fold |
| construct 1: m7G cap; /5Phos/rArGrArGrArArUrArArArArA (SEQ ID NO: 2) (AGAGAAUAAAAA; m7G cap, 5' phosphate; modified_base 1 OTHER; 5'-phosphate modified nucleotide) | A>G~C~U |  |
| construct 2: m7G cap; /5Phos/rUrGrArGrArArUrArArArArA (SEQ ID NO: 3) (UGAGAAUAAAAA; m7G cap, 5' phosphate; modified_base 1 OTHER; 5'-phosphate modified nucleotide) | A>G~C~U |  |
| construct 20: ClBnOEt7G cap; /5Phos/rArGrArGrArArUrArArArArA (SEQ ID NO: 21) (AGAGAAUAAAAA; ClBnOEt7G cap, 5' phosphate; modified_base 1 OTHER; 5'-phosphate modified nucleotide) | did not outperform m7G |  |
| construct 26: m7G-capped azide oligo /5Phos/rArGrArGrArUrArA/3AzideN/ clicked to uncapped rArArA/i5OCTdU/rArArArArArA (SEQ ID NO: 33) (AAATAAAAAA; m7G-capped azide oligo clicked to internal octyne-dU; modified_base 4 OTHER; 5-Octadiynyl modified uracil; misc_feature 1..3 RNA; misc_feature 4 DNA; misc_feature 5..10 RNA) |  | Translation of branched / dual-capped Fluc mRNA (bioluminometry), result in words (HeLa cells; topological screening: OU handle position, branching point, branch length, PS): effectively induce mRNA translation |
| construct 18: Bn7G cap; /5Phos/rArGrArGrArArUrArArArArA (SEQ ID NO: 19) (AGAGAAUAAAAA; Bn7G cap, 5' phosphate; modified_base 1 OTHER; 5'-phosphate modified nucleotide) | did not outperform m7G |  |
| construct 21: LNAm7G cap; /5Phos/rArGrArGrArArUrArArArArA (SEQ ID NO: 22) ({P}-rArGrArGrArArUrArArArArA; LNA-modified m7G cap on the 5'-phosphate) |  | Protein expression (Firefly luciferase luminescence normalized to Renilla, then to m7G-rG), fold increase (HeLa cells): 4.5 fold |
| construct 43: m7G cap; /5Phos/mAmGmAmGmAmAmUmAmAmAmAmAmAmGmGmGmAmAmUmAmAmAmC (SEQ ID NO: 26) ({P}-mAmGmAmGmAmAmUmAmAmAmAmAmAmGmGmGmAmAmUmAmAmAmC; m7G cap on the 5'-phosphate) |  | Susceptibility / resistance to hDcp2 decapping [1]: increased decapping resistance to a similar level as LNA modification |
| construct 5: m7G cap; /5Phos//iN6Me-rA/rGrArGrArArUrArArArArA (SEQ ID NO: 6) (AGAGAAUAAAAA; m7G cap; 5' phosphate; N6-methyl-A; modified_base 1 OTHER; 5'-phosphate modified N6-methyladenosine) | enhanced protein production |  |
| construct 28: m7G cap; OU handle only; /5Phos/rArGrArUrArArA/i5OCTdU/rArArArArArA (SEQ ID NO: 38) (AGATAAATAAAAAA; m7G cap; internal octyne-dU handle; modified_base 1 OTHER; 5'-phosphate modified nucleotide; modified_base 8 OTHER; 5-Octadiynyl modified uracil; misc_feature 1..7 RNA; misc_feature 8 DNA; misc_feature 9..14 RNA) |  | Kd (eIF4E): 2.21 µM |
| construct 42: dual LNAm7G-capped; /5Phos/rArGrArGrArUrArA/3AzideN/ clicked to /5Phos/rArGrArUrArArA/i5OCTdU/rArArArArArA (SEQ ID NO: 120) (AGATAAATAAAAAA; dual LNA-m7G caps via click branch; modified_base 1 OTHER; 5'-phosphate modified nucleotide; modified_base 8 OTHER; 5-Octadiynyl modified uracil; misc_feature 1..7 RNA; misc_feature 8 DNA; misc_feature 9..14 RNA) |  | Kd (eIF4E): 1.28 µM |
| construct 9: m7G cap; /5Phos//ibetaL-rA/rGrArGrArArUrArArArArA (SEQ ID NO: 10) (AGAGAAUAAAAA; m7G cap; 5' phosphate; beta-L-A; modified_base 1 OTHER; 5'-phosphate modified L-adenosine) | negligible changes |  |
| construct 16: m7G cap; /5Phos//i2MOErA//i2MOErG//i2MOErA//i2MOErG//i2MOErA//i2MOErA/rUrArArArArA (SEQ ID NO: 17) ({P}-eAeGeAeGeAeArUrArArArArA; m7G cap on the 5'-phosphate) |  | Protein expression (Firefly luciferase luminescence normalized to Renilla, then to m7G-rG), fold increase (HeLa cells): 5.4 fold |
| construct 4: m7G cap; /5Phos/rIrGrArGrArArUrArArArArA (SEQ ID NO: 5) ({P}-r[I]rGrArGrArArUrArArArArA; m7G cap on the 5'-phosphate) | enhanced protein production |  |
| construct 8: m7G cap; /5Phos//i2FA/rGrArGrArArUrArArArArA (SEQ ID NO: 9) ({P}-fArGrArGrArArUrArArArArA; m7G cap on the 5'-phosphate) | hindered translation |  |
| construct 3: m7G cap; /5Phos/rCrGrArGrArArUrArArArArA (SEQ ID NO: 4) (CGAGAAUAAAAA; m7G cap, 5' phosphate; modified_base 1 OTHER; 5'-phosphate modified nucleotide) | A>G~C~U |  |
| construct 19: ClBn7G cap; /5Phos/rArGrArGrArArUrArArArArA (SEQ ID NO: 20) (AGAGAAUAAAAA; ClBn7G cap, 5' phosphate; modified_base 1 OTHER; 5'-phosphate modified nucleotide) | did not outperform m7G |  |
| construct 10: m7G cap; /5Phos/ArGrArGrArArUrArArArArA (SEQ ID NO: 11) ({m7G-cap}-dArGrArGrArArUrArArArArA) | negligible changes |  |
